Results published in patent US20230144619A1, “SALT OF ARYLAMINOPURINE DERIVATIVE, PREPARATION METHOD THEREFOR AND USE THEREOF” (CSPC Zhongqi Pharmaceutical Technology (Shijiazhuang) Co., …, priority 2020, published 2023).
Converted amounts (≈) assume the structure as drawn.

What was measured:
[1] = Solubility test (UV spectrophotometer, saturated solutions shaken 24 hours); assay type: physicochemical; details: for Solubility, Water medium pH = 1.2 / Solubility, Water medium pH = 4.5 / Solubility, Water medium pH = 6.8 / Solubility, Water medium: 25° C.; for Solubility, Water medium pH = 1.2: pH=1.2 hydrochloric acid solution; for Solubility, Water medium pH = 4.5: pH=4.5 phosphate buffer solution; for Solubility, Water medium pH = 6.8: pH=6.8 phosphate buffer solution; for Solubility, Water medium: water (purified water)
Description: Detection instrument: Ultraviolet spectrophotometer/Evolution 300
The following solutions with pH=1.2, pH=4.5, and pH=6.8 and water were used as the solvent, and the solvent preparation process was as follows:
(1) pH=1.2 hydrochloric acid solution: To 7.65 mL of hydrochloric acid was added 1000 mL of water, and the mixture was shaken uniformly to obtain the target solution.
(2) pH=4.5 phosphate buffer solution: 6.8 g of potassium dihydrogen phosphate was taken and diluted with water to 1000 mL, and the mixture was shaken uniformly to obtain the target solution.
(2) pH=6.8 phosphate buffer solution: 6.8 g of potassium dihydrogen phosphate and 0.896 g of sodium hydroxide were taken and diluted with water to 1000 mL, and the mixture was shaken uniformly to obtain the target solution.
(4) Water: purified water
Test tubes with stopper were taken, and 10 mL of dissolution media at various pH values were precisely added to the test tubes respectively, and excessive stock drugs were added until supersaturated solutions were formed. The adding amounts were recorded. The solutions were shaken uniformly, sealed with stoppers, and shaken for 24 hours in a shaker. 2 mL of solutions were taken out at different time points respectively, and centrifuged. The resulting supernatants were taken, filtered, and the subsequent filtrates were taken for later use.
The above-mentioned saturated solutions in different solvents were taken, and solvents were added to dilute the solutions to certain volumes. The absorbances were measured at a wavelength of 287 nm.
Preparation of a solution of the reference substance: an appropriate amount of the compound represented by Formula 1 was taken as the reference substance, and precisely weighed. A solvent was added to dissolve and dilute the reference compound to produce a solution containing about 10 μg of the compound represented by Formula 1 per 1 mL. The absorbance was measured at a wavelength of 287 nm to calculate the solubility.
The salts obtained in Examples 1 and 3-17 and the compound represented by Formula 1 were subjected to the solubility test in media and the test results were shown in the following table: […]

Hygroscopicity test = assay type: physicochemical; details: 25±1° C., relative humidity 80%±2% (DVS, 80% RH)
Description: Detection instrument: XPE105DR
(1) A dry stoppered glass weighing bottle was taken, placed in a suitable constant-temperature desiccator at 25° C. 1° C. (with a saturated solution of ammonium chloride or ammonium sulfate in the lower part) or an artificial climate box (with the set temperature of 25° C.±1° C. and the relative humidity of 80%±2%) on the day before the test, and precisely weighed and recorded as the weight (m1).
(2) An appropriate amount of the test sample was taken and spread in the above-mentioned weighing bottle. The thickness of the test sample was generally about 1 mm, and the bottle was precisely weighed and recorded as the weight (m2).
(3) The stopper was removed to open the weighing bottle, and the opened weighing bottle and the stopper were placed under the above-mentioned constant temperature and humidity conditions for 24 hours.
(4) The opened weighing bottle was stoppered, precisely weighed, and recorded as the weight (m3).
Percentage increase in mass=(m3−m2)/(m2−m1)×100%
(5) The description of hygroscopicity characteristics and the definition for the weight gain due to hygroscopicity:
Deliquescence: Sufficient water was absorbed to form a liquid.
Very hygroscopic: the weight gain due to hygroscopicity was not less than 15%.
Hygroscopic: the weight gain due to hygroscopicity was less than 15% but not less than 2%.
Slightly hygroscopic: the weight gain due to hygroscopicity was less than 2% but not less than 0.2%.
Not or nearly not hygroscopic: the weight gain due to hygroscopicity was less than 0.2%.
Appropriate amounts of the salt samples obtained from Examples 1 and 3-17 were subjected to the hygroscopicity test at a temperature of 25±1° C. under a relative humidity of 80%±2%, and the results were as follows: […]

DSC and TGA tests = assay type: physicochemical; details: onset temperature
Description: 6. Differential Scanning Calorimetry-Thermogravimetric Analysis (DSC-TGA)
Detection instrument: NETZSCH STA 449F3
Temperature range: 20° C.-350° C.;
Heating rate: 10.0 (K/min);
7. Differential Scanning Calorimetry (DSC)
Detection instrument: NETZSCH DSC 214 Polyma
Temperature range: 20° C.-250° C.;
Heating rate: 5.0 (K/min);
8. Thermogravimetric Analysis (TGA)
Detection instrument: METTLER and SDT Q600
The salts obtained in Examples 1 and 3-17 and the compound represented by Formula 1 were subjected to the DSC and TGA tests in media, and the test results were shown in the following table: […]

[2] = test system: MV4-11 (FLT3-ITD mutation) subcutaneous tumor model; details: human leukemia MV4-11 transplantation tumors in nude mice, background statement; cited from earlier work
[3] = test system: human non-small cell lung cancer HCC827; details: lung cancer HCC827 transplantation tumors in nude mice, background statement; cited from earlier work
[4] = test system: K562 (BCR-Abl gene rearrangement) subcutaneous tumor model; details: human leukemia K562 transplantation tumors in nude mice, background statement; cited from earlier work
[5] = test system: lung cancer (PC-9) transplantation tumors; details: lung cancer PC-9 transplantation tumors in nude mice, background statement; cited from earlier work
leukemia = details: background statement; cited from earlier work
lung cancer = details: background statement; cited from earlier work
[6] = Accelerated stability test; assay type: physicochemical
Description: Appropriate amounts of the salt samples obtained from Examples 1 and 3-17 were placed at a temperature of 25±2° C. under 0%±5% RH in an open environment for 10 days and at a temperature of 40±2° C. under 75%±5% RH in an open environment for 10 days respectively to perform the accelerated tests, and the results were as follows: […]

[7] = Placed at 25 ± 2° C. under 0% ± 5% RH in an open environment for 10 days
[8] = Placed at 40 ± 2° C. under 75% ± 5% RH in an open environment for 10 days

Structure (SMILES) | Solubility, Water medium pH = 1.2 [1] [mg/mL] | Solubility, Water medium pH = 4.5 [1] [mg/mL] | Solubility, Water medium pH = 6.8 [1] [mg/mL] | Solubility, Water medium [1] [mg/mL] | solubility in water (in words) ([1]; water) | Hygroscopicity (Hygroscopicity test) | Weight gain due to hygroscopicity (Hygroscopicity test) [%] | TGA: starting to decompose (DSC and TGA tests) | efficacy on transplantation tumors [2] | efficacy on transplantation tumors [3] | efficacy on transplantation tumors [4] | efficacy on transplantation tumors [5] | anti-leukemia activity compared with Sunitinib (leukemia) | anti-lung cancer activity compared with Gefitinib (lung cancer) | Appearance [6, 7] | Appearance [6, 8] | TGA: starting to lose the acid (DSC and TGA tests) | TGA: starting to lose the water of crystallization (DSC and TGA tests)
CC(C)n1c(Nc2cccnc2)nc2cnc(Nc3ccc(N4CCN(C)CC4)cc3)nc21 [The compound represented by Formula 1, 9-isopropyl-2-(4-(4-methylpiperazin-1-yl)anilino)-8-(pyridine-3-amino)-9H-purine] | 12.60 | 0.57 | 0.04 | 0.05 | insoluble in water | Slightly hygroscopic (the weight gain due to hygroscopicity was less than 2% but not less than 0.2%.) | 0.45 | ~155 °C (see FIG. 42) | remarkable efficacy | remarkable efficacy | remarkable efficacy | remarkable efficacy | better than that of Sunitinib | comparable to that of Gefitinib | – | – | – | –
CC(C)n1c(Nc2cccnc2)nc2cnc(Nc3ccc(N4CCN(C)CC4)cc3)nc21 [Example 14] | 41.47 | 0.72 | 0.03 | 0.04 (≈ 0.0902 mM) | – | Slightly hygroscopic (the weight gain due to hygroscopicity was less than 2% but not less than 0.2%.) | 1.59 | – | – | – | – | – | – | – | Off-white solid | Off-white solid | ~80 °C (see FIG. 37) | crystallization at about 40° C.;
CC(C)n1c(Nc2cccnc2)nc2cnc(Nc3ccc(N4CCN(C)CC4)cc3)nc21 [Example 4] | >1000 | >1000 | >1000 | >1000 | – | Hygroscopic (the weight gain due to hygroscopicity was less than 15% but not less than 2%.) | 6.94 | – | – | – | – | – | – | – | Liquid | Liquid | ~220 °C (see FIG. 23) | crystallization at about 40° C.;
CC(C)n1c(Nc2cccnc2)nc2cnc(Nc3ccc(N4CCN(C)CC4)cc3)nc21 [Example 7] | 43.07 | 6.51 | 12.24 | 6.91 (≈ 15.6 mM) | – | Slightly hygroscopic (the weight gain due to hygroscopicity was less than 2% but not less than 0.2%.) | 1.19 | – | – | – | – | – | – | – | Yellow solid | Yellow solid | ~180 °C (see FIG. 27) | crystallization at about 40° C.;
